Assay results published in patent publication US20080319001A1, “Cancer Treatment Using Specific 3,6,9-Substituted Acridines” (priority 2005, published 2008).

Legend:
human telomerase = settings: Read et al. 2001; Harrison et al. 2003; Schultes et al. 2004; cited from earlier work
tumour cell line = settings: Incles et al, 2004; cited from earlier work
A549-derived xenografts = experiment: A549 xenograft combination study; type: in vivo, mouse; settings: single agent (AS1410 1 mg/kg or cisplatin 6 mg/kg), after approximately 60 days
Protocol: AS1410 was reconstituted in 0.9% saline B.P. to the required final concentration (0.331 and 0.0993) mg/ml of AS1410 succinate salt for intravenous administration).
The xenografts were prepared from the lung carcinoma A549 (ATCC Number CCL-185). Cells were grown in accordance with standard operating procedures and established methodology for this cell line to provide 5×10^6 cells per mouse.
A549-derived xenografts were established in 50 female nu/nu MF1 mice respectively by subcutaneous injection into the right flank of each mouse (5×10^6 cells in 100 μl phosphate buffered saline).
Animals were checked regularly until visible tumours appeared. Tumours were then measured in accordance with the relevant SOP regularly and tumour volume calculated using the formula: […]
Once the tumours were established, the mice were allocated into groups of 9 mice using a randomization procedure based on stratified xenograft volume.
Day 0 is defined as the day on which the average tumour volume is between 0.04 to 0.1 cm^3. Relative tumour volume on Day 0 is defined as 1.
Each mouse was observed and tumours measured until the xenografts tripled (3V0) in volume compared with volume on the day of treatment (V0). The elapsed period is the volume tripling time (VTT).
AS1410 was given by slow bolus intravenous injection. For AS1410 a dose volume 5 μl/g bodyweight was used. Control mice were untreated. […]

DU145 xenografts = experiment: DU145 xenograft efficacy study; type: in vivo, mouse
Protocol: The mouse was selected because it is a rodent species and is internationally accepted as the species of choice for human xenograft studies. The nu/nu MF1 strain was selected.
A high dose level of 1 mg/kg given once daily for 10 days was selected for this study. Low and intermediate dose levels of 0.3 and 0.6 mg/kg/day were also selected to aid characterisation of the dose-response profile.
The test articles were reconstituted in 0.9% physiological saline B.P. to the required final concentrations; and where necessary, an organic solvent (e.g. DMSO or ethanol) was used to aid solubilisation of some materials.
Treated mice received a bolus intravenous injection of the test formulation once daily for two weeks (week-days only). A dose-volume of […] bodyweight was be used. Control mice were untreated.
A total of 175 female MF1 mice were obtained from the Biological Research Facility, SGHMS, London. Animals were in a weight range of 26-30 g (6 to 8 weeks of age). Mice were individually identified using a subcutaneously implanted microchip.
The xenografts were prepared from the DU145 cell line (ATCC HTB-81). Cells were grown in accordance with established methodology for this cell line to provide 5×10^6 cells per mouse.
Xenografts were established in the MF1 mice by subcutaneous injection into the right flank of each mouse (5×10^6 cells in […] phosphate buffered saline).
Animals were checked regularly until visible tumours appeared. Tumours were then measured in accordance with the relevant SOP three times per week and tumour volume calculated using the formula: […]
Measurements commenced approximately one week before the day of treatment (Day 0) when the xenograft reached an approximate volume of 0.05 cm^3 (e.g. dimensions of approximately 5×5×4 mm).
Once the tumours were established, mice were allocated into groups of 5 mice using a randomization procedure based on stratified xenograft volume.
Day 0 is defined as the day on which the average tumour volume is between 0.12 to 0.16 cm^3. Relative tumour volume on Day 0 is defined as 1.
Each mouse was observed and tumours measured until the xenografts tripled in volume (3Vo) compared with volume on the day of treatment (Vo). The elapsed period was the volume tripling time (VTT).

SMILES | in vitro inhibitory activity against human telomerase (human telomerase) | end-to-end fusions in chromosomes (tumour cell line) | relative tumour volume (A549-derived xenografts) | T-C value (DU145 xenografts; 0.3 mg/kg/day iv) [days] | T-C value (DU145 xenografts; 0.6 mg/kg/day iv) [days] | T-C value (DU145 xenografts; 1 mg/kg/day iv) [days] | xenograft response (DU145 xenografts; 0.3, 0.6 and 1.0 mg/kg/day iv, compared with BSG01)
CN(C)c1ccc(Nc2c3ccc(NC(=O)CCN4CCCC4)cc3nc3cc(NC(=O)CCN4CCCC4)ccc23)cc1 [BSG01] | potent in vitro inhibitory activity | cause end-to-end fusions in chromosomes |  |  |  |  | 
O=C(CCN1CCCC1)Nc1ccc2c(NCc3ccc(F)c(F)c3)c3ccc(NC(=O)CCN4CCCC4)cc3nc2c1 [BSG17, N-(9-(3,4-Difluoro-benzylamino)-6-(3-pyrolidin-1-yl-propionamide)-acridin-3-yl)-3-pyrrolidin-1-yl-propionamide] |  |  | about 5 | 7 | 11.6 | 11 | clear dose response and effects at all three dose levels
